# Experimental data taken from patent US20060167229A1, “Biologically active peptide conjugates” (priority 2002, published 2006).
# Values joined by “and” are separate entries in the source; they are usually repeats but may differ in a detail not shown here. Equal entries are not always repeated. Marks after values point to notes of the source that are not given here. Ends that are not written are not given here.
# Columns and labels:
# [1] = system: T lymphocyte; assay: T lymphocyte transformation test (ConA-stimulated spleen cells of treated mice, MTT); format: in vivo, BALB/c mice; settings: for X ± SD (stimulation index): healthy mice, saline 1.3 ± 0.1; for effect on T lymphocyte transformation (summary): statistically significant difference from saline in any of the dosage groups 0.5-500 μg/kg/day
# Method: The above substances were all dissolved in 0.5 ml saline and injected intraperitoneal (i.p.) for 15 continuous days, once per day.
# (§1) Ten mice per group. The day after the last test substance administration, the mice were sacrificed by cervical dislocation. The spleen was isolated aseptically and manually dispersed in cold D-Hank's solution using an injection needle. The dispersed cell suspension was further sieved through a 100 gauge 150 μm diameter stainless steel sieve. After centrifugation at 200 g for 10 minutes, the supernatant was discarded. The cell pellet was re-suspended in 10 volume of Tris-NH4Cl buffer and then kept standing still for 10 minutes at room temperature. The suspended cells were collected by centrifugation at 150 g for 10 minutes. The cells were washed 2-4 times with cold D-Hank's solution by re-suspending and collecting by centrifugation with condition as described above. The washed cells were then diluted to the desired cell densities by RPMI-1640 culture medium, containing 10% fetal bovine serum.
# (§2) Spleen cells of density 1×10^6/ml were placed onto a 96 wells cell culture plate, 100 μL/well, three parallel wells each of the assay sample and control sample per mouse. To the assay wells, 100 μl/well ConA of 100 μg/ml in RPMI-1640 was added, and 1001 μl/well plain RPMI-1640 was used for the controls. The cells were incubated for 66 hrs at 37° C., 5% CO2. The cells were then pelleted by centrifugation at 150 g for 10 minutes.
# (§3) 50 μl/well MTT of 1 mg/ml in RPMI-1640 was added to the cell pellet and the cells re-suspended by shaking for 2 minutes. The incubation was continued for 4 hours. The supernatant was discarded after centrifugation at 150 g for 10 minutes. 120 μl 40 mM HCl-2-propanol was added to the cell pellet and shaken for 3 minutes. to obtain OD570 nm of each well referenced at 630 nm. An ELISA reader was used
# (§4) Each mouse formed three assay wells and three control wells. The Stimulation Index (SI) of each mouse was obtained by first deriving the average OD of the three parallel wells, then dividing the value of the assay wells by the control wells.
# [2] = system: IL-2; assay: T lymphocyte IL-2 secretion test (HT-2 cell bioassay of ConA supernatant); format: in vivo, BALB/c mice; settings: for activity of T lymphocyte in secreting IL-2, X ± SD (IU): healthy mice; for effect on the secretion of interleukin-2 (IL-2) by T lymphocytes (summary): statistically significant difference from saline in any of the dosage groups 0.5-500 μg/kg/day
# Method: as §2
# HT-2 cells at log phase were collected by centrifugation at 150 g for 10 minutes, and washed three times with cold Hank's solution by re-suspension and centrifugation. The collected HT-2 cells were re-suspended in RPMI-1640 and incubated at 37° C., 5% CO2 for 30 minutes. The cells were further washed twice with RPMI-1640 by re-suspension and centrifugation, and re-suspended to final concentration of 2×10^5/ml with RPMI-1640.
# rIL-2 was diluted to the following concentration with RPMI-1640: 500 IU/ml, 250 IU/ml, 125 IU/ml, 62.5 IU/ml, 31.25 IU/ml, and […].
# The plate was incubated at 37° C., 5% CO2 for 68 hours, then centrifuged at 150 g for 15 minutes and the supernatant removed. 100 μl 0.5 mg/ml MTT in RPMI-1640 without phenolsulfonphthalein was added into each well. After shaking for 3-4 minutes to re-suspend the cells, continue to incubate for another 4 hours. Samples were then centrifuged at 150 g for 15 minutes and the supernatant was removed. To each well, 120 μl 40 mM HCl-2-propanol was added, mixed for 3-4 minutes and OD analyzed at 570 nm, referenced at 630 nm with an ELISA plate reader.
# The average OD of the three parallel wells of each dilution was taken and plotted against concentration on a semi-log paper, concentration on the X-axis. The concentration at 50% OD saturation was obtained for both the testing supernatant and rIL-2.
# [3] = system: interferon (IFN); parameters: species or system BALB/c mice; settings: mouse, in vivo; for activity of T lymphocyte in secreting IFN, X ± SD (IU): ip
# [4] = system: T lymphocyte; assay: T lymphocyte transformation in mice with ascitic fluid type liver cancer H22; format: in vivo, BALB/c mice; settings: saline 1.25 ± 0.07
# Method: as §1, with “Healthy BALB/c mice were randomised into peptide group, rmIFN-γ group, rhIL-2 group, and saline group, 15” for “Ten”, “group, and prepared into H22 carrying mice model as described in section Method 3. After implantation of” for “group. The day after”, “cancer cells, the” for “last”, “substances were administered for 15 days,” for “substance administration,”, “killed” for “sacrificed”, “100-gauge” for “100 gauge”
# as §2, with “μl/well,” for “μL/well,”, “100” for “1001”
# as §3, with “3 minutes. Use an ELISA reader to obtain” for “3 minutes. to obtain”, “630 nm.” for “630 nm. An ELISA reader was used”
# as §4
# [5] = peptide 5 μg/kg/day i.p. 15 days (IFN-γ, IL-2 3×10^5 IU/kg/day)
# [6] = peptide 50 μg/kg/day i.p. 15 days (IFN-γ, IL-2 3×10^5 IU/kg/day)
# [7] = peptide 50 μg/kg/day i.p. 15 days (IFN-γ, IL-2 3×10^5 IU/kg/day), saline 39 ± 10
# [8] = peptide 0.5 μg/kg/day i.p. 15 days (IFN-γ, IL-2 3×10^5 IU/kg/day)
# [9] = peptide 500 μg/kg/day i.p. 15 days (IFN-γ, IL-2 3×10^5 IU/kg/day)
# [10] = peptide 5 μg/kg/day i.p. 15 days (IFN-γ, IL-2 3×10^5 IU/kg/day), saline 37 ± 9
# [11] = peptide 0.51 g/kg/day (so in the source) i.p. 15 days (IFN-γ, IL-2 3×10^5 IU/kg/day), saline 38 ± 13
# [12] = peptide 500 μg/kg/day i.p. 15 days (IFN-γ, IL-2 3×10^5 IU/kg/day), saline 39 ± 10
Molecule,effect on T lymphocyte transformation (summary) [1],effect on the secretion of interleukin-2 (IL-2) by T lymphocytes (summary) [2],effect on the secretion of IFN by T lymphocytes (summary) [3],"activity of T lymphocyte in secreting IFN, X ± SD (IU) [3]","X ± SD (stimulation index) [1, 9]","activity of T lymphocyte in secreting IL-2, X ± SD (IU) [2, 11]",other results
FNFVPP [CMS003],enhance,enhance,enhance,106 ± 16 IU,,,"X ± SD (stimulation index) [1, 5]: 1.6 ± 0.2; X ± SD (stimulation index) [1, 6]: 2.2 ± 0.5*^@^; activity of T lymphocyte in secreting IL-2, X ± SD (IU) [2, 7]: 86 ± 9*^ IU"
IGMESAGIHETTY [CMS016],,,enhance,162 ± 19*^@^ IU,,,
KAVGHLDDLPGAL [CMS008],enhance,,,,1.7 ± 0.1,,"X ± SD (stimulation index) [1, 8]: 1.7 ± 0.3"
LGMQACGIHETTY [CMS012],enhance,enhance,enhance,86 ± 9 IU,1.6 ± 0.2,59 ± 13 IU,"activity of T lymphocyte in secreting IL-2, X ± SD (IU) [2, 10]: 65 ± 16 IU"
LRVAPQQHPTL [CMS009],enhance,enhance,enhance,121 ± 15*^ IU,1.7 ± 0.2,,"activity of T lymphocyte in secreting IL-2, X ± SD (IU) [2, 12]: 114 ± 13*^@^ IU"
PTTKTYFPHF [CMS001],enhance,enhance,enhance,110 ± 15 IU,,,"X ± SD (stimulation index) [1, 5]: 1.7 ± 0.2; X ± SD (stimulation index) [1, 6]: 2.2 ± 0.5*^@^; activity of T lymphocyte in secreting IL-2, X ± SD (IU) [2, 7]: 60 ± 10 IU"
Phe Val Asn Asp (FVND; listed as Sus scrofa) [CMS035],,,,,,,Stimulation index ([4]; dose 0.5 μg/kg): 1.40 ± 0.13*^$; Stimulation index ([4]; dose 5 μg/kg): 1.46 ± 0.16*^$
Pro Gln Asn Phe (PQNF; printed: Pro Gln Asn Phe) [CMS034],enhance,enhance,,,,85 ± 10*^ IU,"X ± SD (stimulation index) [1, 5]: 1.5 ± 0.2; Stimulation index ([4]; dose 0.5 μg/kg): 1.37 ± 0.10*^$"
Pro Ser Ile Vat Gly Arg Pro Arg His Gln Gly Val Met (PSIVGRPRHQGVM; listed as Sus scrofa) [CMS015],enhance,enhance,,,1.9 ± 0.3*^@^,,"activity of T lymphocyte in secreting IL-2, X ± SD (IU) [2, 12]: 85 ± 17*^ IU"
RVAPQQHPTL [CMS011],enhance,enhance,enhance,89 ± 18 IU,,101 ± 19*^@^ IU,"X ± SD (stimulation index) [1, 8]: 1.6 ± 0.4"
Tyr Ser Leu (YSL; listed as Sus scrofa) [CMS024],,,,,,,Stimulation index ([4]; dose 0.5 μg/kg): 1.46 ± 0.19*^$; Stimulation index ([4]; dose 5 μg/kg): 1.45 ± 0.21*^$
Tyr Ser Phe (YSF; listed as Sus scrofa) [CMS022],,enhance,enhance,145 ± 13*^@^ IU,,109 ± 14*^@^ IU,
VAPEEHPTLLTEAPLNPK [CMS010],enhance,enhance,enhance,167 ± 13*^@^ IU and 142 ± 18*^@^ IU,2.0 ± 0.3*^@^,66 ± 11 IU,"X ± SD (stimulation index) [1, 8]: 1.7 ± 0.3; activity of T lymphocyte in secreting IL-2, X ± SD (IU) [2, 12]: 125 ± 17*^@^ IU; Stimulation index ([4]; dose 500 μg/kg): 1.45 ± 0.21*^$"
VGMGQKDSY,enhance,,,,1.8 ± 0.3,,Stimulation index ([4]; dose 0.5 μg/kg): 1.50 ± 0.19*^$
VGMGQKDSYV [CMS020],,enhance,,,,,"activity of T lymphocyte in secreting IL-2, X ± SD (IU) [2, 10]: 63 ± 11 IU"
"IFN-γ: recombinant mouse IFN-γ (rmIFN-γ), Beijing Biotech Inc.; positive control (protein, UniProt P01580 23-155, looked up) Interferon gamma: HGTVIESLESLNNYFNSSGIDVEEKSLFLDIWRNWQKDGDMKILQSQIISFYLRLFEVLKDNQAISNNISVIESHLITTFFSNSKAKKDAFMSIAKFEVNNPQVQRQAFNELIRVVHQLLPESSLRKRKRSRC",,,,139 ± 16 IU and 125 ± 18 IU and 124 ± 16 IU,1.6 ± 0.2,87 ± 15 IU,"X ± SD (stimulation index) [1, 8]: 1.6 ± 0.2; X ± SD (stimulation index) [1, 5]: 1.6 ± 0.2; X ± SD (stimulation index) [1, 6]: 1.7 ± 0.2; activity of T lymphocyte in secreting IL-2, X ± SD (IU) [2, 10]: 96 ± 14 IU; activity of T lymphocyte in secreting IL-2, X ± SD (IU) [2, 7]: 99 ± 16 IU; activity of T lymphocyte in secreting IL-2, X ± SD (IU) [2, 12]: 100 ± 18 IU; Stimulation index ([4]; controls: rhIL-2, rmIFN-γ 3 × 10^5 IU/kg, cyclophosphamide 20 mg/kg): 1.27 ± 0.14"
